Source: patent publication US8592422B2, “Bicyclic triazole and pyrazole lactams as allosteric modulators of mGluR5 receptors” (Vanderbilt University, priority 2010, dated 2013)
“And” between values parts separate entries of the source, which are not always exact repeats. Equal values may be shown once.

Molecular target: T1, human mGluR5a receptor (Homo sapiens, UniProt P41594)
T1 construct: cDNA subcloned into pcDNA3.1(-)
Assay: Cell-based functional Ca2+ mobilization assay (FDSS), potentiation of glutamate EC20 response
Details: HEK cells transfected with human mGluR5 (H10H or H12H); in presence of EC20 glutamate; read-out: EC50
Summary of the method: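 HEK293A cells stably expressing human mGluR5a (H10H or H12H clones), plated overnight in glutamate-glutamine-free medium, loaded with Ca2+-sensitive dye (e.g. Fluo-4) and read on FDSS.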

T1 sequence (P41594 21-1180 isoform P41594-2 limits assumed): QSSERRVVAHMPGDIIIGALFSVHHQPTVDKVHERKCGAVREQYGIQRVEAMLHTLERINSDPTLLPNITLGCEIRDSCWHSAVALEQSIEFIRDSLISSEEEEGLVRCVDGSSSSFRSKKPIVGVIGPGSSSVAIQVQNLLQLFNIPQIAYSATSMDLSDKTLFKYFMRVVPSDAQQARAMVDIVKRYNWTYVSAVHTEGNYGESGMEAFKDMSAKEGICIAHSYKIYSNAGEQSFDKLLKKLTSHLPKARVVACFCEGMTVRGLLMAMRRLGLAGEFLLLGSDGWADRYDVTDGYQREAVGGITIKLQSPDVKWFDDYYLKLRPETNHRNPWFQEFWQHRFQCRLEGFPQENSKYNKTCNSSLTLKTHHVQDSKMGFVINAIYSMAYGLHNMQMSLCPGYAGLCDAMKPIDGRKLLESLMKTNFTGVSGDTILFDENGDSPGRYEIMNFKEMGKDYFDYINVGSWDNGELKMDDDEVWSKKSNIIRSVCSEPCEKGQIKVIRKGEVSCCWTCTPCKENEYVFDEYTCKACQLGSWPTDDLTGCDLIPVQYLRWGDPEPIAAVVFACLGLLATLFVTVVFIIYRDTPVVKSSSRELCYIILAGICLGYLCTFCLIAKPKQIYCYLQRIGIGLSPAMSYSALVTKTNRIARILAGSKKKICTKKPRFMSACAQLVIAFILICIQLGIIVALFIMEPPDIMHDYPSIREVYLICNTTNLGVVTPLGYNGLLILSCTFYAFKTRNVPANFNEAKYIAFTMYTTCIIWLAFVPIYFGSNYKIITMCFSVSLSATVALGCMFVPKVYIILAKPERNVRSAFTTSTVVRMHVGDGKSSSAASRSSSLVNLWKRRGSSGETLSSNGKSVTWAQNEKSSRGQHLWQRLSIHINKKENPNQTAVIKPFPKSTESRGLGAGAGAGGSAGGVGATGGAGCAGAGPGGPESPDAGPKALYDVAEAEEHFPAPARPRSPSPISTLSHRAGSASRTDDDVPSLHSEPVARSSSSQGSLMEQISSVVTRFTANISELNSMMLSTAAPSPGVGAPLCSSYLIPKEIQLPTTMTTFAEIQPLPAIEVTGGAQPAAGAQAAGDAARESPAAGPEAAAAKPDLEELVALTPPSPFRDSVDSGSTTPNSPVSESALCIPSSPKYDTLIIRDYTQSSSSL

| SMILES | EC50 |
| --- | --- |
| N#Cc1cccc(OCc2cc3n(n2)CCN(c2ccc(F)cn2)C3=O)c1 [Example 233] | 525 nM |
| CC1CN(c2ccc(F)cc2)C(=O)c2cc(COc3cccc(C#N)c3)nn21 (stereo not drawn) [Example 241] | > 30200 nM |
| Cc1cccc(OCc2cc3n(n2)C(C)CN(c2ccc(F)cc2)C3=O)c1 (stereo not drawn) [Example 242] | > 30200 nM |
| O=C1c2cc(COc3ccccc3)nn2CCN1c1nccc(N2CCCC2)n1 [Example 309] | 3550 nM |
| CN(C)c1cccc(OCc2cc3n(n2)CCN(c2ccc(F)cc2)C3=O)n1 [Example 310] | > 30200 nM |
| CN(C)c1ccnc(OCc2cc3n(n2)CCN(c2ccc(F)cc2)C3=O)c1 [Example 312] | > 30200 nM |
| COc1nc(N2CCn3nc(COc4ccc(F)cc4)cc3C2=O)ncc1F [Example 318] | 240 nM |
| O=C1c2cc(COc3ccc(O)cc3)nn2CCN1c1ccc(F)cn1 [Example 355] | 3630 nM |

Results, then the molecule that gave them:

| EC50 | SMILES |
| --- | --- |
| 224 nM | CNc1nc(N2CCn3nc(COc4ccccc4)cc3C2=O)ncc1F [Example 279] |
| 355 nM | CN(C)c1cncc(N2CCn3nc(COc4ccccc4)cc3C2=O)n1 [Example 280] |
| 1100 nM | CN(C)c1ccnc(N2CCn3nc(COc4ccccc4)cc3C2=O)c1 [Example 282] |
| 30 nM | CN(C)c1cccc(N2CCn3nc(COc4ccccc4)cc3C2=O)n1 [Example 286] |
| 603 nM | CN(C)c1ccc(N2CCn3nc(COc4ccccc4)cc3C2=O)nc1 [Example 287] |
| 54 nM | Cc1ccc(N(C)C)nc1N1CCn2nc(COc3ccccc3)cc2C1=O [Example 291] |
| 76 nM | Cc1cc(F)cc(N2CCn3nc(COc4ccccc4)cc3C2=O)c1 [Example 297] |
| 110 nM | COc1cc(F)cc(N2CCn3nc(COc4ccccc4)cc3C2=O)c1 [Example 299] |
| > 30200 nM | Cn1cnc(N2CCn3nc(COc4ccccc4)cc3C2=O)c1 [Example 321] |
| 280 nM | COc1cnc(N2CCn3nc(COc4ccccc4)cc3C2=O)nc1 [Example 353] |

Same assay, conditions: HEK cells transfected with human mGluR5 (H10H or H12H); in presence of EC20 glutamate; read-out: pEC50 (converted)

| EC50 | SMILES |
| --- | --- |
| 36.3 nM and 29.5 nM | CN(C)c1cccc(N2CCn3nc(COc4ccccc4)cc3C2=O)n1 [Example 286] |
| 40.7 nM | CN(C)c1cccc(N2CCn3nc(COc4cccc(F)c4)cc3C2=O)n1 [Example 316] |
| 28.8 nM | Cc1ccc(N2CCn3nc(COc4ccccc4)cc3C2=O)s1 [Example 319] |

Same assay, conditions: maximum % effect in concentration-response curve, as percent of response to maximally effective glutamate

| SMILES | Emax | Emax (%) |
| --- | --- | --- |
| N#Cc1cccc(OCc2cc3n(n2)CCN(c2ccc(F)cn2)C3=O)c1 [Example 233] | 54% |  |
| CC1CN(c2ccc(F)cc2)C(=O)c2cc(COc3cccc(C#N)c3)nn21 (stereo not drawn) [Example 241] | 21% |  |
| Cc1cccc(OCc2cc3n(n2)C(C)CN(c2ccc(F)cc2)C3=O)c1 (stereo not drawn) [Example 242] | 21% |  |
| O=C1c2cc(COc3ccccc3)nn2CCN1c1nccc(N2CCCC2)n1 [Example 309] | 56% |  |
| CN(C)c1cccc(OCc2cc3n(n2)CCN(c2ccc(F)cc2)C3=O)n1 [Example 310] | 26% |  |
| CN(C)c1ccnc(OCc2cc3n(n2)CCN(c2ccc(F)cc2)C3=O)c1 [Example 312] | 25% |  |
| CN(C)c1cccc(N2CCn3nc(COc4cccc(F)c4)cc3C2=O)n1 [Example 316] | 74% |  |
| COc1nc(N2CCn3nc(COc4ccc(F)cc4)cc3C2=O)ncc1F [Example 318] | 72% |  |
| O=C1c2cc(COc3ccc(O)cc3)nn2CCN1c1ccc(F)cn1 [Example 355] | 55% |  |

The next lines start with the values.

| Emax | Emax (%) | SMILES |
| --- | --- | --- |
| 69% |  | CNc1nc(N2CCn3nc(COc4ccccc4)cc3C2=O)ncc1F [Example 279] |
| 70% |  | CN(C)c1cncc(N2CCn3nc(COc4ccccc4)cc3C2=O)n1 [Example 280] |
| 64% |  | CN(C)c1ccnc(N2CCn3nc(COc4ccccc4)cc3C2=O)c1 [Example 282] |
| 76% | 69% | CN(C)c1cccc(N2CCn3nc(COc4ccccc4)cc3C2=O)n1 [Example 286] |
| 67% |  | CN(C)c1ccc(N2CCn3nc(COc4ccccc4)cc3C2=O)nc1 [Example 287] |
| 63% |  | Cc1ccc(N(C)C)nc1N1CCn2nc(COc3ccccc3)cc2C1=O [Example 291] |
| 71% |  | Cc1cc(F)cc(N2CCn3nc(COc4ccccc4)cc3C2=O)c1 [Example 297] |
| 64% |  | COc1cc(F)cc(N2CCn3nc(COc4ccccc4)cc3C2=O)c1 [Example 299] |
| 68% |  | Cc1ccc(N2CCn3nc(COc4ccccc4)cc3C2=O)s1 [Example 319] |
| 23% |  | Cn1cnc(N2CCn3nc(COc4ccccc4)cc3C2=O)c1 [Example 321] |
| 61% |  | COc1cnc(N2CCn3nc(COc4ccccc4)cc3C2=O)nc1 [Example 353] |

System: male Sprague-Dawley rats
Assay: Reversal of amphetamine-induced hyperlocomotion
Format: in vivo, rat
Details: oral gavage, doses per FIG. 4; amphetamine 1 mg/kg sc
Protocol: Locomotor activity was assessed as mean distance traveled (cm) in standard 16×16 photocell testing chambers measuring 43.2 cm (Length)×43.2 cm (Width)×30.5 cm (Height) (Med Associates, St. Albans, Vt.). Animals were habituated to individual activity chambers for at least 30 min prior to drug administration. Following administration of drug or vehicle, activity was recorded for a 90 minute time period. Data was expressed as the mean (±SEM) distance traveled recorded in 5 min intervals over the test period. The data was analyzed using repeated measures analysis of variance (ANOVA) followed by post-hoc testing using Dunnett's test, when appropriate. A difference was considered significant when p≦0.05. […]
The animals were habituated in Smart Open Field locomotor activity test chambers (Hamilton-Kinder, San Diego, Calif.) with 16×16 photobeams to automatically record locomotor activity for 30 min and then dosed with vehicle or test compound. […] At 60 min, all rats were injected subcutaneously with 1 mg/kg amphetamine or vehicle and then monitored for an additional 60 min. Animals are monitored for a total of 120 minutes. Data are expressed as changes in ambulation defined as total number of beam breaks per 5 min periods.
The data for the dose-response studies were analyzed by a between-group analysis of variance. […]

| SMILES | reversal of amphetamine-induced hyperlocomotion |
| --- | --- |
| O=C1c2cc(COc3ccccc3)nn2CCN1c1ccc(F)cn1 | reversal of amphetamine-induced hyperlocomotion |

System: not given
Assay: not given
Details: not given

| SMILES | melting point |
| --- | --- |
| N#Cc1cccc(OCc2cc3n(n2)CCN(c2ccc(F)cn2)C3=O)c1 [Example 233] | 181.3 °C |
| CC1CN(c2ccc(F)cc2)C(=O)c2cc(COc3cccc(C#N)c3)nn21 (stereo not drawn) [Example 241] | 110.2 °C |
| Cc1cccc(OCc2cc3n(n2)C(C)CN(c2ccc(F)cc2)C3=O)c1 (stereo not drawn) [Example 242] | 70.2 °C |
| O=C1c2cc(COc3ccccc3)nn2CCN1c1nccc(N2CCCC2)n1 [Example 309] | 143.2 °C |
| CN(C)c1cccc(OCc2cc3n(n2)CCN(c2ccc(F)cc2)C3=O)n1 [Example 310] | 153.8 °C |
| CN(C)c1ccnc(OCc2cc3n(n2)CCN(c2ccc(F)cc2)C3=O)c1 [Example 312] | > 300 °C |
| CN(C)c1cccc(N2CCn3nc(COc4cccc(F)c4)cc3C2=O)n1 [Example 316] | 121.2 °C |
| COc1nc(N2CCn3nc(COc4ccc(F)cc4)cc3C2=O)ncc1F [Example 318] | > 300 °C |
| O=C1c2cc(COc3ccc(O)cc3)nn2CCN1c1ccc(F)cn1 [Example 355] | 212.7 °C |

Other lines, results leading:

| melting point | SMILES |
| --- | --- |
| 176.6 °C | CNc1nc(N2CCn3nc(COc4ccccc4)cc3C2=O)ncc1F [Example 279] |
| 215.1 °C | CN(C)c1cncc(N2CCn3nc(COc4ccccc4)cc3C2=O)n1 [Example 280] |
| 190.2 °C | CN(C)c1ccnc(N2CCn3nc(COc4ccccc4)cc3C2=O)c1 [Example 282] |
| 143.7 °C | CN(C)c1cccc(N2CCn3nc(COc4ccccc4)cc3C2=O)n1 [Example 286] |
| 164.8 °C | CN(C)c1ccc(N2CCn3nc(COc4ccccc4)cc3C2=O)nc1 [Example 287] |
| 117.9 °C | Cc1ccc(N(C)C)nc1N1CCn2nc(COc3ccccc3)cc2C1=O [Example 291] |
| 116.3 °C | Cc1cc(F)cc(N2CCn3nc(COc4ccccc4)cc3C2=O)c1 [Example 297] |
| 127.8 °C | COc1cc(F)cc(N2CCn3nc(COc4ccccc4)cc3C2=O)c1 [Example 299] |
| 194.5 °C | Cc1ccc(N2CCn3nc(COc4ccccc4)cc3C2=O)s1 [Example 319] |
| 203.7 °C | Cn1cnc(N2CCn3nc(COc4ccccc4)cc3C2=O)c1 [Example 321] |
| 266.9 °C | COc1cnc(N2CCn3nc(COc4ccccc4)cc3C2=O)nc1 [Example 353] |
